Legend:
[1] = system: NCI-H1341 (Small Cell Lung Carcinoma); assay: combination Emax (second highest fraction inhibited in the dose matrix, 72 h); higher = more inhibition; extreme values may be limits of the assay
In short: (§1)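 After 24 hours at 37°C and 5% CO2 in 1536-well plates, cells in DMEM/F12 or RPMI plus 10% FBS received two-drug dose matrices for 72 hours. Viability came from CellTiter-Glo 2.0 luminescence and was scaled as inhibition, anchored at 0 by vehicle wells and at 1 by blank wells. Combination Emax is taken as the second-highest inhibition in the matrix, and Bliss excess as the observed combination effect less EA + EB − EA·EB, with EA and EB the single-agent effects.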

[2] = system: CL-11 (Colorectal Carcinoma); assay: as above
In short: as §1

[3] = system: SAT (Head and Neck Carcinoma); assay: as above
In short: as §1

[4] = system: SNU-C2B (Colorectal Carcinoma); assay: as above
In short: as §1

[5] = system: C-33-A (Cervical Carcinoma); assay: as above
In short: as §1

[6] = system: HT-1080 (Other Solid Carcinomas); assay: as above
In short: as §1

SK-N-SH (Neuroblastoma) = assay: as above
In short: as §1

[7] = system: NCI-H1876 (Small Cell Lung Carcinoma); assay: as above
In short: as §1

[8] = system: LS-1034 (Colorectal Carcinoma); assay: as above
In short: as §1

[9] = system: T84 (Colorectal Carcinoma); assay: as above
In short: as §1

[10] = system: MM1S (Plasma Cell Myeloma); assay: as above
In short: as §1

[11] = system: CPC-N (Small Cell Lung Carcinoma); assay: as above
In short: as §1

[12] = system: Raji (Burkitt's Lymphoma); assay: as above
In short: as §1

[13] = system: OAW-28 (Ovarian Carcinoma); assay: as above
In short: as §1

[14] = system: SiHa (Cervical Carcinoma); assay: as above
In short: as §1

[15] = system: DBTRG-05MG (Glioblastoma); assay: as above
In short: as §1

[16] = system: OVCAR-3 (Ovarian Carcinoma); assay: as above
In short: as §1

[17] = system: SNU-423 (Hepatocellular Carcinoma); assay: Bliss excess, mean over the matrix (fraction); higher = more synergy
In short: as §1

[18] = system: NCI-H1341 (Small Cell Lung Carcinoma); assay: as above
In short: as §1

[19] = system: LCLC-103H (Non-Small Cell Lung Carcinoma); assay: as above
In short: as §1
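For Bliss excess, mean over the matrix in this document: after 72 h of two-drug dosing.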

Structure (SMILES)	combination Emax [1]	combination Emax [2]	combination Emax [3]	combination Emax [4]	combination Emax [5]	combination Emax [6]	combination Emax (SK-N-SH (Neuroblastoma))	combination Emax [7]	combination Emax [8]	combination Emax [9]	combination Emax [10]	combination Emax [11]	combination Emax [12]	combination Emax [13]	combination Emax [14]	combination Emax [15]	combination Emax [16]	Bliss excess [17]	Bliss excess [18]	Bliss excess [19]
COc1nnc2ccc(N3CCC(c4ccc(OCCN5CCN(C)C(=O)[C@H]5C)cc4)CC3)nn12 [AZD5153] + CCN(CCO)CCCOc1ccc2c(Nc3cc(CC(=O)Nc4cccc(F)c4)[nH]n3)ncnc2c1 [AZD2811] (first compound max 1 µM, 7x7, partner max 1 µM)	0.659	0.677	0.775	0.581	0.476	0.387	0.532	0.708	0.535	0.202	0.635	0.697	0.558	0.431	0.571	0.333	0.602	-0.0417	0.0041	-0.0104
COc1nnc2ccc(N3CCC(c4ccc(OCCN5CCN(C)C(=O)[C@H]5C)cc4)CC3)nn12 [AZD5153] + Cn1cnc2c(F)c(Nc3ccc(Br)cc3Cl)c(C(=O)NOCCO)cc21 [Selumetinib] (first compound max 1 µM, 7x7, partner max 10 µM)	0.559	0.967	0.843	0.573	0.573	0.596	0.521	0.23	0.814	0.483	0.947	0.451	0.535	0.498	0.628	0.399	0.54	0.0059	-0.0282	0.0325
CC(=O)c1c(C)c2cnc(Nc3ccc(N4CCNCC4)cn3)nc2n(C2CCCC2)c1=O [Palbociclib] + Cc1c2c(nn1C)CSCc1cc(n(C)n1)CSc1cc(c3ccccc3c1)OCCCc1c(C(=O)O)n(C)c3c-2c(Cl)ccc13 [AZD5991] (first compound max 10 µM, 7x7, partner max 1 µM)	0.374	0.309	0.821	0.365	0.467	0.0542	0.575	0.534	0.686	0.119	0.26	0.264	0.704	0.277	0.0939	0.169	0.167	-0.0349	-0.031	-0.0151
NC1(C(=O)N[C@@H](CCO)c2ccc(Cl)cc2)CCN(c2ncnc3[nH]ccc23)CC1 [Capivasertib] + CC(C)n1c(=O)n(C)c2cnc3cc(F)c(-c4ccc(OCCCN5CCCCC5)nc4)cc3c21 [AZD1390] (first compound max 10 µM, 7x7, partner max 0.3 µM)	0.532	0.223	0.555	0.303	0.675	0.194	0.349	0.172	0.322	0.367	0.999	0.399	0.185	0.119	0.241	0.243	0.227	-0.0583	-0.0818	-0.0712
COc1nnc2ccc(N3CCC(c4ccc(OCCN5CCN(C)C(=O)[C@H]5C)cc4)CC3)nn12 [AZD5153] + C=CCn1c(=O)c2cnc(Nc3ccc(N4CCN(C)CC4)cc3)nc2n1-c1cccc(C(C)(C)O)n1 [AZD1775] (first compound max 1 µM, partner max 1 µM)	0.972	0.809	0.785	0.584	0.956	0.522	0.645	0.99	0.613	0.349	0.734	0.918	0.711	0.701	0.621	0.369	0.852	-0.0459	-0.0121	-0.0128
CC1(C)CCC(CN2CCN(c3ccc(C(=O)NS(=O)(=O)c4ccc(NCC5CCOCC5)c([N+](=O)[O-])c4)c(Oc4cnc5[nH]ccc5c4)c3)CC2)=C(c2ccc(Cl)cc2)C1 [Venetoclax] + Cn1cnc2c(F)c(Nc3ccc(Br)cc3Cl)c(C(=O)NOCCO)cc21 [Selumetinib] (first compound max 1 µM, 7x7, partner max 3 µM)	0.432	0.528	0.566	0.27	0.324	0.316	0.553	0.205	0.537	0.16	0.306	0.734	0.0995	0.284	0.16	0.285	0.126	-0.11	0.0847	-0.0542
CC1(C)CCC(CN2CCN(c3ccc(C(=O)NS(=O)(=O)c4ccc(NCC5CCOCC5)c([N+](=O)[O-])c4)c(Oc4cnc5[nH]ccc5c4)c3)CC2)=C(c2ccc(Cl)cc2)C1 [Venetoclax] + C[C@@H](Nc1cc(F)cc(F)c1)c1cc(C(=O)N(C)C)cc2c(=O)cc(N3CCOCC3)oc12 [AZD8186] (first compound max 1 µM, 7x7, partner max 3 µM)	0.583	0.083	0.345	0.125	0.154	0.164	0.403	0.182	0.0835	0.101	0.288	0.835	0.172	0.331	0.243	0.12	0.241	0.0364	0.0918	-0.0504
C[C@@H](c1ccc2nccn2c1)n1nnc2ncc(-c3cnn(C)c3)nc21 [Savolitinib] + CN(CC[C@H](CSC1=CC=CC=C1)NC2=C(C=C(C=C2)S(=O)(=O)NC(=O)C3=CC=C(C=C3)N4CCC(CC4)[C@H](C5=CC=CC=C5C6=CC=C(C=C6)Cl)O)S(=O)(=O)C(F)(F)F)CCO [AZD4320] (first compound max 1 µM, 7x7, partner max 1 µM)	1	0.173	0.189	0.212	–	0.566	–	0.797	–	–	0.974	–	0.173	0.903	0.224	0.439	0.131	–	0.0128	–
CCc1c2c(nc3ccc(O)cc13)-c1cc3c(c(=O)n1C2)COC(=O)[C@]3(O)CC [SN-38] + O=C(c1cc(Cc2n[nH]c(=O)c3ccccc23)ccc1F)N1CCN(C(=O)C2CC2)CC1 [Olaparib] (first compound max 0.3 µM, 7x7, partner max 10 µM)	0.99	0.776	0.418	0.478	0.747	0.489	0.959	–	0.553	0.528	–	0.392	0.956	–	0.32	0.407	0.687	-0.0025	0.0698	0.0352
Cc1c2c(nn1C)CSCc1cc(n(C)n1)CSc1cc(c3ccccc3c1)OCCCc1c(C(=O)O)n(C)c3c-2c(Cl)ccc13 [AZD5991] + CCN(CCO)CCCOc1ccc2c(Nc3cc(CC(=O)Nc4cccc(F)c4)[nH]n3)ncnc2c1 [AZD2811] (first compound max 1 µM, 7x7, partner max 1 µM)	0.341	–	0.811	0.17	0.275	0.264	0.614	0.998	0.227	0.177	0.982	0.835	0.776	0.378	0.368	0.225	0.378	-0.0322	0.0493	-0.0421
CC(=O)c1c(C)c2cnc(Nc3ccc(N4CCNCC4)cn3)nc2n(C2CCCC2)c1=O [Palbociclib] + CN(CC[C@H](CSC1=CC=CC=C1)NC2=C(C=C(C=C2)S(=O)(=O)NC(=O)C3=CC=C(C=C3)N4CCC(CC4)[C@H](C5=CC=CC=C5C6=CC=C(C=C6)Cl)O)S(=O)(=O)C(F)(F)F)CCO [AZD4320] (first compound max 10 µM, 7x7, partner max 1 µM)	0.992	0.759	0.485	0.599	–	0.415	–	0.926	–	–	0.964	–	0.455	0.889	0.104	0.529	0.204	–	-0.008	–
COc1nnc2ccc(N3CCC(c4ccc(OCCN5CCN(C)C(=O)[C@H]5C)cc4)CC3)nn12 [AZD5153] + CN(CC[C@H](CSC1=CC=CC=C1)NC2=C(C=C(C=C2)S(=O)(=O)NC(=O)C3=CC=C(C=C3)N4CCC(CC4)[C@H](C5=CC=CC=C5C6=CC=C(C=C6)Cl)O)S(=O)(=O)C(F)(F)F)CCO [AZD4320] (first compound max 1 µM, 7x7, partner max 1 µM)	1	0.782	0.804	0.55	–	0.618	–	0.977	–	–	1	–	0.579	1	0.527	0.399	0.601	–	0.0454	–
C=CCn1c(=O)c2cnc(Nc3ccc(N4CCN(C)CC4)cc3)nc2n1-c1cccc(C(C)(C)O)n1 [AZD1775] + C[C@@H]1COCCN1C2=NC(=NC(=C2)C3(CC3)[S@](=N)(=O)C)C4=C5C=CNC5=NC=C4 [AZD6738] (first compound max 1 µM, partner max 10 µM)	0.941	0.774	0.469	0.726	0.978	0.476	0.953	0.987	0.763	0.817	–	0.999	0.937	0.522	0.371	0.332	0.74	-0.0095	0.0723	0.0108

From the supplement of paper PMC11061612
